# Test results from ChEMBL document CHEMBL5120959, “Pyrrospirones K-Q, Decahydrofluorene-Class Alkaloids from the Marine-Derived Fungus Penicillium sp. SCSIO 41512” (J Nat Prod, 2022).
# Test system: Mycobacterium tuberculosis
# Assay: Antitubercular activity against Mycobacterium tuberculosis H37Ra
# Type: functional
smiles,measurement,value
C=C[C@H]1C=C[C@@H]2[C@@H]3[C@@H](Oc4ccc(cc4)C[C@@]4(O)C[C@H](C(=O)N4)C(=O)[C@@H]13)[C@@H]1CC[C@@H](C)C[C@@]21C,MIC,0.78 µg/mL
